Calls of active or inactive are those of the source. No cut-off for these calls is given here.
Experiments:
[1] = Cytotoxicity against human PNT2 cells assessed as cell viability at 50 uM after 72 hrs by cell titre glo assay; assay type: cell-based; details: pnt2, 72 h
HCT-116 [2] = test: Cytotoxicity against human HCT116 cells assessed as cell viability at 50 uM after 72 hrs by cell titre glo assay relative to control; assay type: functional; details: HCT-116, 72 h, read-out: Activity
HCT-116 [3] = test: Cytotoxicity against human HCT116 cells assessed as cell viability at 0.1 to 100 uM after 48 hrs by cell titre glo assay; assay type: functional, cell-based
[4] = Cytotoxicity against human DK1 cells assessed as growth inhibition at 50 uM after 20 mins by green fluorescence assay relative to control; assay type: functional; details: DK1, 20 min, read-out: GI
[5] = Cytotoxicity against human DK1 cells assessed as growth inhibition at 25 uM after 20 mins by green fluorescence assay relative to control; assay type: functional; details: DK1, 20 min, read-out: GI
[6] = Cytotoxicity against human PNT2 cells assessed as cell viability after 72 hrs by cell titre glo assay; assay type: cell-based; details: pnt2, 72 h
HCT-116 [7] = test: Cytotoxicity against human HCT116 cells assessed as cell viability after 72 hrs by cell titre glo assay; assay type: functional, cell-based
HCT-116 [8] = test: Cytotoxicity against human HCT116 cells assessed as cell survival at 25 uM after 72 hrs by cell titre glo assay relative to control; assay type: functional; details: HCT-116, 72 h, read-out: Survival
[9] = Cytotoxicity against human PNT2 cells assessed as growth inhibition at 0.1 to 10 uM after 72 hrs by cell titre glo assay; assay type: cell-based; details: pnt2, 72 h

## Cc1cc(C)c2nc3c(c(C(O)C4CCCCN4)c2c1)CC/C3=C\c1ccc(Cl)cc1 (configuration not stated)
[1]
  Activity: Non-toxic
HCT-116 [2]
  viability at 50 µM: 50%
HCT-116 [3]
  Activity: Active

## CC(C)c1ccc(C(C2=C(O)C3C=CC=CC3OC2=O)c2c(O)c3ccccc3oc2=O)cc1 (configuration not stated)
HCT-116 [3]
  Activity: Active

## NS(=O)(=O)c1cc2c(cc1Cl)NC(Cc1ccccc1)NS2(=O)=O (configuration not stated)
HCT-116 [3]
  Activity: inactive

## NC(CSC1(c2ccc(Cl)cc2)c2ccccc2-c2ccccc21)C(=O)O (configuration not stated)
[4]
  inhibition of growth at 50 µM: 50%
[5]
  inhibition of growth at 25 µM: 35%
[6]
  Activity: Dose-dependent effect
HCT-116 [7]
  Activity: Dose-dependent effect
HCT-116 [3]
  Activity: Active

## O=C1c2ccccc2NC(c2cc(Cl)cc(Cl)c2O)N1CCc1ccccn1 (configuration not stated)
[1]
  Activity: Non-toxic
HCT-116 [2]
  viability at 50 µM: 50%
HCT-116 [3]
  Activity: Active

## OC(c1cc(-c2ccccc2)nc2c1ccc1ccccc12)C1CCCCN1 (configuration not stated)
[5]
  inhibition of growth at 25 µM: 50%
[6]
  Activity: Dose-dependent effect
HCT-116 [7]
  Activity: Dose-dependent effect
HCT-116 [8]
  viability at 25 µM: 0%
HCT-116 [3]
  Activity: Active

## CC[C@@]1(O)C(=O)OCc2c1cc1n(c2=O)Cc2cc3c(CN(C)C)c(O)ccc3nc2-1 [TOPOTECAN]
[9]
  growth inhibition (GI): Toxic
HCT-116 [3]
  Activity: Active

## OC(c1c(Cl)cc(Cl)c2nc(C34CC5CC(CC(C5)C3)C4)ccc12)C1CCCCN1 (configuration not stated)
[9]
  growth inhibition (GI): Toxic
HCT-116 [3]
  Activity: Active

## COc1ccc2nc3cc(Cl)ccc3c(Nc3ccc(O)c(CN4CCN(C)CC4)c3)c2c1
[5]
  inhibition of growth at 25 µM: 50%
[6]
  Activity: Dose-dependent effect
HCT-116 [7]
  Activity: Dose-dependent effect
HCT-116 [8]
  viability at 25 µM: 18%
HCT-116 [3]
  Activity: Active
